Patent US20230203081A1, “LINCOSAMIDE ANTIBIOTICS AND USES THEREOF” (President and Fellows of Harvard College, priority 2020, published 2023)
In brackets after ≈: the same amount, converted by molar mass.

What was measured:
Assay type in all cases: cell-based
S. pneumoniae ATCC 49619 = test: MIC (broth microdilution or agar dilution, CLSI); conditions: Streptococcus pneumoniae, ATCC49619
In short: (§1)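 Inoculum for broth microdilution was 5×10^5 CFU/mL final, prepared from overnight 35° C blood-agar subcultures (separate handling for streptococcal and anaerobic strains); MICs read by CLSI broth microdilution or agar dilution.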

[1] = system: S. pneumoniae MMX 3028 cErmB; test: MIC (broth microdilution or agar dilution, CLSI); conditions: Streptococcus pneumoniae, MMX3028CERMB
In short: as §1

E. faecalis ATCC 29212 = test: MIC (broth microdilution or agar dilution, CLSI); conditions: Enterococcus faecalis, ATCC29212
In short: as §1

[2] = system: S. aureus ATCC BAA-1707 (MRSA); test: MIC (broth microdilution or agar dilution, CLSI); conditions: Staphylococcus aureus
In short: as §1

[3] = system: S. pneumoniae MMX 3031 cMefA; test: MIC (broth microdilution or agar dilution, CLSI); conditions: Streptococcus pneumoniae, MMX3031CMEFA
In short: as §1

[4] = system: E. faecalis MMX 847; cErmB; test: MIC (broth microdilution or agar dilution, CLSI); conditions: Enterococcus faecalis
In short: as §1

S. pyogenes ATCC 19615 = test: MIC (broth microdilution or agar dilution, CLSI); conditions: Streptococcus pyogenes, ATCC19615
In short: as §1

S. pneumoniae ATCC 6303 = test: MIC (broth microdilution or agar dilution, CLSI); conditions: Streptococcus pneumoniae, ATCC6303
In short: as §1

S. aureus ATCC 29213 = test: MIC (broth microdilution or agar dilution, CLSI); conditions: Staphylococcus aureus, ATCC29213
In short: as §1

[5] = system: S. pyogenes MMX 946; cErmB; test: MIC (broth microdilution or agar dilution, CLSI); conditions: Streptococcus pyogenes
In short: as §1

E. coli ATCC 25922 = test: MIC (broth microdilution or agar dilution, CLSI); conditions: Escherichia coli, ATCC25922
In short: as §1

E. coli LptD = test: MIC (broth microdilution or agar dilution, CLSI); conditions: Escherichia coli, E. coli HAV#040; LptD; read-out: MIC
In short: as §1

S. aureus MMX 3035 cErmA = test: MIC (broth microdilution or agar dilution, CLSI); conditions: Staphylococcus aureus, MMX3035CERMA
In short: as §1

K. pneumoniae ATCC 10031 = test: MIC (broth microdilution or agar dilution, CLSI); conditions: Klebsiella pneumoniae, ATCC10031
In short: as §1

S. aureus BAA 977 iErmA = test: microbe, parasite or virus in culture; conditions: Staphylococcus aureus, BAA-977 / MRSA
In short: as §1

S. aureus MP-549 msrA = test: microbe, parasite or virus in culture; conditions: Staphylococcus aureus, MP549MSRA
In short: as §1

[6] = system: broad panel of different clinical isolates; test: microbe, parasite or virus in culture
In short: as §1

E. coli ΔTolC = test: microbe, parasite or virus in culture; conditions: Escherichia coli
In short: as §1

CN[C@H](CC(C)C)C(=O)N[C@H]1C(=O)N[C@@H](CC(N)=O)C(=O)N[C@H]2C(=O)N[C@H]3C(=O)N[C@H](C(=O)N[C@H](C(=O)O)c4cc(O)cc(O)c4-c4cc3ccc4O)[C@H](O)c3ccc(c(Cl)c3)Oc3cc2cc(c3O[C@@H]2O[C@H](CO)[C@@H](O)[C@H](O)[C@H]2O[C@H]2C[C@](C)(N)[C@H](O)[C@H](C)O2)Oc2ccc(cc2Cl)[C@H]1O [Vancomycin]
MIC (S. pneumoniae ATCC 49619): 0.5 µg/mL (≈ 0.345 µM)
MIC [1]: 0.25 µg/mL (≈ 0.173 µM)
MIC (E. faecalis ATCC 29212): 4 µg/mL (≈ 2.76 µM)
MIC [2]: 1 µg/mL (≈ 0.69 µM)
MIC [3]: 0.5 µg/mL (≈ 0.345 µM)
MIC [4]: > 64 µg/mL
MIC (S. pyogenes ATCC 19615): 0.5 µg/mL (≈ 0.345 µM)
MIC (S. pneumoniae ATCC 6303): 0.5 µg/mL (≈ 0.345 µM)
MIC (S. aureus ATCC 29213): 1 µg/mL (≈ 0.69 µM)
MIC [5]: 0.5 µg/mL (≈ 0.345 µM)
MIC (E. coli ATCC 25922): > 128 µg/mL
MIC (E. coli LptD): 1 µg/mL (≈ 0.69 µM)
MIC (S. aureus MMX 3035 cErmA): 2 µg/mL (≈ 1.38 µM)
MIC (K. pneumoniae ATCC 10031): > 64 µg/mL
MIC (S. aureus BAA 977 iErmA): 1 µg/mL (≈ 0.69 µM)
MIC (S. aureus MP-549 msrA): 1 µg/mL (≈ 0.69 µM)
MIC ([6]; Acinetobacter baumannii, A. baumannii HAV#651, Clinical): 128 µg/mL (≈ 88.3 µM)
MIC ([6]; Acinetobacter baumannii, A. baumannii HAV#652 Clinical): 128 µg/mL (≈ 88.3 µM)
MIC ([6]; Acinetobacter baumannii, A. baumannii HAV#653, Clinical): 128 µg/mL (≈ 88.3 µM)
MIC ([6]; Acinetobacter baumannii, A. baumannii HAV#654, Clinical): 128 µg/mL (≈ 88.3 µM)
MIC ([6]; Acinetobacter baumannii, A. baumannii HAV#655, Clinical): 128 µg/mL (≈ 88.3 µM)
MIC ([6]; Acinetobacter baumannii, A. baumannii HAV#656, Clinical): > 128 µg/mL
MIC ([6]; Acinetobacter baumannii, A. baumannii HAV#657, Clinical): > 128 µg/mL
MIC ([6]; Acinetobacter baumannii, A. baumannii HAV#658, Clinical): > 128 µg/mL
MIC ([6]; Acinetobacter baumannii, A. baumannii HAV#659, Clinical): > 128 µg/mL
MIC ([6]; Acinetobacter baumannii, A. baumannii HAV#660, Clinical): > 128 µg/mL
MIC ([6]; Acinetobacter baumannii, A. baumannii HAV#661, Clinical): 128 µg/mL (≈ 88.3 µM)
MIC ([6]; Acinetobacter baumannii, A. baumannii HAV#662, Clinical): > 128 µg/mL
MIC ([6]; Acinetobacter baumannii, A. baumannii HAV#663, Clinical): 128 µg/mL (≈ 88.3 µM)
MIC ([6]; Acinetobacter baumannii, A. baumannii HAV#664, Carbapenem R): > 128 µg/mL
MIC ([6]; Enterococcus faecalis, E. faecalis HAV#602, Clincal): 4 µg/mL (≈ 2.76 µM)
MIC ([6]; Enterococcus faecalis, E. faecalis HAV#607, Clinical): > 128 µg/mL
MIC ([6]; Enterococcus faecalis, E. faecalis HAV#608, Clinical): 16 µg/mL (≈ 11 µM)
MIC ([6]; Enterococcus faecalis, E. faecalis HAV#609, Clinical): 32 µg/mL (≈ 22.1 µM)
MIC ([6]; Enterococcus faecalis, E. faecalis HAV#610, Clinical): 32 µg/mL (≈ 22.1 µM)
MIC ([6]; Enterococcus faecalis, S. faecalis 5060, Line R & Vanco R): > 256 µg/mL
MIC ([6]; Enterococcus faecalis, S. faecalis 5074, Line R): 2 µg/mL (≈ 1.38 µM)
MIC ([6]; Enterococcus faecalis, VRE, E. faecalis HAV#251, Clinical VRE): 8 µg/mL (≈ 5.52 µM)
MIC ([6]; Enterococcus faecalis, VRE, E. faecalis HAV#606, Clinical): > 128 µg/mL
MIC ([6]; Enterococcus faecium, E. faecium HAV#317, Clinical): 2 µg/mL (≈ 1.38 µM)
MIC ([6]; Enterococcus faecium, E. faecium HAV#324, Clinical): > 128 µg/mL
MIC ([6]; Enterococcus faecium, E. faecium HAV#327, Clinical): 4 µg/mL (≈ 2.76 µM)
MIC ([6]; Enterococcus faecium, E. faecium HAV#328, Clinical): > 128 µg/mL
MIC ([6]; Enterococcus faecium, E. faecium HAV#329, Clinical): > 128 µg/mL
MIC ([6]; Enterococcus faecium, VRE, E. faecium HAV#318, VanA): > 64 µg/mL
MIC ([6]; Enterococcus faecium, VRE, E. faecium HAV#319, Line R & Vanco R): > 256 µg/mL
MIC ([6]; Enterococcus faecium, VRE, E. faecium HAV#320, Clinical): > 128 µg/mL
MIC ([6]; Escherichia coli, E. coli HAV#503, Clinical): 128 µg/mL (≈ 88.3 µM)
MIC ([6]; Escherichia coli, E. coli HAV#511, Clinical): > 128 µg/mL
MIC ([6]; Escherichia coli, E. coli HAV#512, Clinical): > 128 µg/mL
MIC ([6]; Escherichia coli, E. coli HAV#513, Clinical): > 128 µg/mL
MIC ([6]; Escherichia coli, E. coli HAV#514, Clinical): 128 µg/mL (≈ 88.3 µM)
MIC ([6]; Escherichia coli, E. coli HAV#516, ESBL-producing): 128 µg/mL (≈ 88.3 µM)
MIC ([6]; Haemophilus influenzae, ATCC9007, H. influenzae HAV#376, ATCC-9007): > 64 µg/mL
MIC ([6]; Klebsiella pneumoniae, K. pneumoniae HAV#404, Clinical): > 128 µg/mL
MIC ([6]; Klebsiella pneumoniae, K. pneumoniae HAV#405, Clinical): > 128 µg/mL
MIC ([6]; Klebsiella pneumoniae, K. pneumoniae HAV#406, Clinical): > 128 µg/mL
MIC ([6]; Klebsiella pneumoniae, K. pneumoniae HAV#407, Clinical): > 128 µg/mL
MIC ([6]; Klebsiella pneumoniae, K. pneumoniae HAV#408, Clinical): > 128 µg/mL
MIC ([6]; Klebsiella pneumoniae, K. pneumoniae HAV#409, ESBL-producing): > 128 µg/mL
MIC ([6]; Staphylococcus aureus, MRSA, S. aureus HAV#0107, MRSA Col(Colindale, England)): 2 µg/mL (≈ 1.38 µM)
MIC ([6]; Staphylococcus aureus, MRSA, S. aureus HAV#218, Line R): 1 µg/mL (≈ 0.69 µM)
MIC ([6]; Staphylococcus aureus, MRSA, S. aureus HAV#220, Line R): 1 µg/mL (≈ 0.69 µM)
MIC ([6]; Staphylococcus aureus, MSSA, S. aureus HAV#219, Line R): 1 µg/mL (≈ 0.69 µM)
MIC ([6]; Staphylococcus aureus, S. aureus HAV#051, mecA, norA, spcl, ermA, aad1, aac6′-aph2″): 2 µg/mL (≈ 1.38 µM)
MIC ([6]; Staphylococcus aureus, S. aureus HAV#052, mecA, norA, fosB, blaZ): 2 µg/mL (≈ 1.38 µM)
MIC ([6]; Staphylococcus aureus, S. aureus HAV#053 mecA, norA, fosB): 2 µg/mL (≈ 1.38 µM)
MIC ([6]; Staphylococcus aureus, S. aureus HAV#054, mecA, norA, spcl, aad1, fosB, ermA, aac6′-aph2″, blaZ): 1 µg/mL (≈ 0.69 µM)
MIC ([6]; Staphylococcus aureus, S. aureus HAV#211, Clinical): 0.5 µg/mL (≈ 0.345 µM)
MIC ([6]; Staphylococcus aureus, S. aureus HAV#212, Clinical): 0.5 µg/mL (≈ 0.345 µM)
MIC ([6]; Staphylococcus aureus, S. aureus HAV#213, Clinical): 0.5 µg/mL (≈ 0.345 µM)
MIC ([6]; Staphylococcus aureus, S. aureus HAV#214, Clinical): 0.5 µg/mL (≈ 0.345 µM)
MIC ([6]; Staphylococcus aureus, S. aureus HAV#215, Clinical): 1 µg/mL (≈ 0.69 µM)
MIC ([6]; Staphylococcus aureus, S. aureus HAV#216, Clinical, cfr): > 64 µg/mL
MIC ([6]; Staphylococcus aureus, S. aureus HAV#217, cfr): > 64 µg/mL
MIC ([6]; Staphylococcus aureus, VISA, S. aureus HAV#203, Clinical (VISA)): 8 µg/mL (≈ 5.52 µM)
MIC ([6]; Staphylococcus epidermidis, S. epidermidis HAV# 275 Clinical, cfr): > 64 µg/mL
MIC ([6]; Staphylococcus epidermidis, S. epidermidis HAV# 276, cfr): > 64 µg/mL
MIC ([6]; Staphylococcus epidermidis, S. epidermidis HAV#277, Line R): 2 µg/mL (≈ 1.38 µM)
MIC ([6]; Staphylococcus epidermidis, S. epidermidis HAV#278 Line R): 2 µg/mL (≈ 1.38 µM)
MIC ([6]; Staphylococcus epidermidis, S. epidermidis HAV#279, Line R): 2 µg/mL (≈ 1.38 µM)
MIC ([6]; Staphylococcus haemolyticus, S. haemolyticus 5052, Line R & Methicillin R): 1 µg/mL (≈ 0.69 µM)
MIC ([6]; Streptococcus pneumoniae, ATCC700673, S. pneumoniae HAV#352, ATCC 700673, MDR): 0.5 µg/mL (≈ 0.345 µM)
MIC ([6]; Streptococcus pneumoniae, ATCCBAA255, S. pneumoniae HAV#354, ATCC-BAA-255): 1 µg/mL (≈ 0.69 µM)
MIC ([6]; Streptococcus pneumoniae, ATCCBAA334, S. pneumoniae HAV#353, ATCC-BAA-334): 0.5 µg/mL (≈ 0.345 µM)
MIC ([6]; Streptococcus pneumoniae, S. pneumoniae HAV#356, Clinical): 2 µg/mL (≈ 1.38 µM)
MIC ([6]; Streptococcus pneumoniae, S. pneumoniae HAV#358, Clinical): 1 µg/mL (≈ 0.69 µM)
MIC (E. coli ΔTolC): > 128 µg/mL
